Test results published in ChEMBL document CHEMBL3046161, “Synthesis of potential antitubercular and antimicrobial s-triazine-based scaffolds via Suzuki cross-coupling reaction” (2013).
Converted amounts (≈) assume the structure as drawn.

Experiments:
[1] = test system: Bacillus cereus; test: Antibacterial activity against Bacillus cereus MTCC 430 assessed as growth inhibition at 100 ug/disk after 24 hr by agar disk diffusion method; assay type: functional; conditions: MTCC 430, 24 h, read-out: IZ
[2] = test system: Pseudomonas aeruginosa; test: microbe, parasite or virus in culture; conditions: MTCC 741, 24 h, read-out: IZ
Description: Antibacterial activity against Pseudomonas aeruginosa MTCC 741 assessed as growth inhibition at 100 ug/disk after 24 hr by agar disk diffusion method

[3] = test system: Staphylococcus aureus; test: Antibacterial activity against Staphylococcus aureus MTCC 96 assessed as growth inhibition at 100 ug/disk after 24 hr by agar disk diffusion method; conditions: MTCC 96, 24 h, read-out: IZ
[4] = test system: Proteus vulgaris; test: Antibacterial activity against Proteus vulgaris MTCC 1771 assessed as growth inhibition at 100 ug/disk after 24 hr by agar disk diffusion method; assay type: functional; conditions: MTCC 1771, 24 h, read-out: IZ
[5] = test system: Klebsiella pneumoniae; test: microbe, parasite or virus in culture; conditions: MTCC 109, 24 h, read-out: IZ
Description: Antibacterial activity against Klebsiella pneumoniae MTCC 109 assessed as growth inhibition at 100 ug/disk after 24 hr by agar disk diffusion method

[6] = test system: Pseudomonas aeruginosa; test: Antibacterial activity against Pseudomonas aeruginosa MTCC 741 assessed as growth inhibition after 24 hr by agar streak dilution method; assay type: functional; conditions: MTCC 741, 24 h
[7] = test system: Salmonella typhi; test: Antibacterial activity against Salmonella enterica subsp. enterica serovar Typhi MTCC 733 assessed as growth inhibition at 100 ug/disk after 24 hr by agar disk diffusion method; assay type: functional; conditions: MTCC 733, 24 h, read-out: IZ
[8] = test system: Shigella flexneri; test: Antibacterial activity against Shigella flexneri MTCC 1457 assessed as growth inhibition at 100 ug/disk after 24 hr by agar disk diffusion method; assay type: functional; conditions: MTCC 1457, 24 h, read-out: IZ
[9] = test system: Proteus vulgaris; test: Antibacterial activity against Proteus vulgaris MTCC 1771 assessed as growth inhibition after 24 hr by agar streak dilution method; assay type: functional; conditions: MTCC 1771, 24 h
[10] = test system: Salmonella typhi; test: Antibacterial activity against Salmonella enterica subsp. enterica serovar Typhi MTCC 733 assessed as growth inhibition after 24 hr by agar streak dilution method; assay type: functional; conditions: MTCC 733, 24 h
[11] = test system: Bacillus cereus; test: Antibacterial activity against Bacillus cereus MTCC 430 assessed as growth inhibition after 24 hr by agar streak dilution method; assay type: functional; conditions: MTCC 430, 24 h
[12] = test system: Escherichia coli; test: microbe, parasite or virus in culture; conditions: MTCC 739, 24 h, read-out: IZ
Description: Antibacterial activity against Escherichia coli MTCC 739 assessed as growth inhibition at 100 ug/disk after 24 hr by agar disk diffusion method

[13] = test system: Staphylococcus aureus; test: Antibacterial activity against Staphylococcus aureus MTCC 96 assessed as growth inhibition after 24 hr by agar streak dilution method; assay type: functional; conditions: MTCC 96, 24 h
[14] = test system: Shigella flexneri; test: Antibacterial activity against Shigella flexneri MTCC 1457 assessed as growth inhibition after 24 hr by agar streak dilution method; assay type: functional; conditions: MTCC 1457, 24 h
[15] = test system: Klebsiella pneumoniae; test: Antibacterial activity against Klebsiella pneumoniae MTCC 109 assessed as growth inhibition after 24 hr by agar streak dilution method; assay type: functional; conditions: MTCC 109, 24 h

O=C(O)c1cn(C2CC2)c2cc(N3CCNCC3)c(F)cc2c1=O [CIPROFLOXACIN]
zone of inhibition at 100 µg/disc [1]: 31 mm
zone of inhibition at 100 µg/disc [2]: 33 mm
zone of inhibition at 100 µg/disc [3]: 30 mm
zone of inhibition at 100 µg/disc [4]: 31 mm
zone of inhibition at 100 µg/disc [5]: 33 mm
MIC [6]: 0.78 µg/mL (≈ 2.35 µM)
zone of inhibition at 100 µg/disc [7]: 30 mm
zone of inhibition at 100 µg/disc [8]: 32 mm
MIC [9]: 0.39 µg/mL (≈ 1.18 µM)
MIC [10]: 0.39 µg/mL (≈ 1.18 µM)
MIC [11]: 0.39 µg/mL (≈ 1.18 µM)
zone of inhibition at 100 µg/disc [12]: 32 mm
MIC [13]: 1.56 µg/mL (≈ 4.71 µM)
MIC [14]: 1.56 µg/mL (≈ 4.71 µM)
MIC [15]: 0.78 µg/mL (≈ 2.35 µM)
